Measured values reported in ChEMBL document CHEMBL1135016, “Inhibition of amine oxidases activity by 1-acetyl-3,5-diphenyl-4,5-dihydro-(1H)-pyrazole derivatives” (Bioorg Med Chem Lett, 2002).
pKi: −log10 of the molar value.

Tests used:
[1] = Inhibitory activity against Serum amine oxidase
[2] = biological target: T1, Amine oxidase [flavin-containing] A (Bos taurus, UniProt P21398); assay: Inhibiting activity of the compound was determined against bovine Monoamine oxidase A
T1 sequence (P21398 whole entry): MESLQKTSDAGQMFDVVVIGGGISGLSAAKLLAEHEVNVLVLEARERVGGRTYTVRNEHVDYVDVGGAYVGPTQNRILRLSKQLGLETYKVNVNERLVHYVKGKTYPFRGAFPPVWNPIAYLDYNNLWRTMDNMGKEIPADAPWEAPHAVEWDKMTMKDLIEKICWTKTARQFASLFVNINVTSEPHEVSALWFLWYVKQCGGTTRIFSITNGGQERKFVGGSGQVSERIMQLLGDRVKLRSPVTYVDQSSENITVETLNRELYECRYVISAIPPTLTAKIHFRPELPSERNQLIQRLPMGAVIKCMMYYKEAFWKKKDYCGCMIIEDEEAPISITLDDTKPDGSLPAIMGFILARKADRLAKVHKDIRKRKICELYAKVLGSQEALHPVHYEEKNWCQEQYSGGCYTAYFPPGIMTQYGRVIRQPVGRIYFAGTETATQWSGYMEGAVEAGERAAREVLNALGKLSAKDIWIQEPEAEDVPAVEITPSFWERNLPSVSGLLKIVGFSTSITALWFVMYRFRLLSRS

[3] = biological target: T2, Amine oxidase [flavin-containing] B (Homo sapiens, UniProt P27338); assay: Inhibiting activity of the compound was determined against human Monoamine oxidase B
T2 sequence (P27338 whole entry): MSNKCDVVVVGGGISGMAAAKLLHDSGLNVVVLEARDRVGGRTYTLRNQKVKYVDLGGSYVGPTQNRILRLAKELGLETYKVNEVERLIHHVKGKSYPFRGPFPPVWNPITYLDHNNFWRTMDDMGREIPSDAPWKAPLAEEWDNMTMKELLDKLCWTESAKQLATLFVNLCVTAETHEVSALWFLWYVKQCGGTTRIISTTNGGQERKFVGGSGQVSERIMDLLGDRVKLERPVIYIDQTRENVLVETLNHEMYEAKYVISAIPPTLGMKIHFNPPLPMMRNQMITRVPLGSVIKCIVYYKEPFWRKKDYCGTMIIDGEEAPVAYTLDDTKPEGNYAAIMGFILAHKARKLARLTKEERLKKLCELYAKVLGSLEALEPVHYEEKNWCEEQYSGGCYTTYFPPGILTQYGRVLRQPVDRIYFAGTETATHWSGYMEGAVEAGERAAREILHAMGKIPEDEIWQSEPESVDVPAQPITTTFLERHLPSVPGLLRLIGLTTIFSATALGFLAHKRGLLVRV

[4] = biological target: T3, Monoamine oxidase (Bos taurus, UniProt P56560+P21398); assay: Inhibitory activity against Monoamine oxidase from Bovine brain mitochondria
T3 sequence (P56560 whole entry): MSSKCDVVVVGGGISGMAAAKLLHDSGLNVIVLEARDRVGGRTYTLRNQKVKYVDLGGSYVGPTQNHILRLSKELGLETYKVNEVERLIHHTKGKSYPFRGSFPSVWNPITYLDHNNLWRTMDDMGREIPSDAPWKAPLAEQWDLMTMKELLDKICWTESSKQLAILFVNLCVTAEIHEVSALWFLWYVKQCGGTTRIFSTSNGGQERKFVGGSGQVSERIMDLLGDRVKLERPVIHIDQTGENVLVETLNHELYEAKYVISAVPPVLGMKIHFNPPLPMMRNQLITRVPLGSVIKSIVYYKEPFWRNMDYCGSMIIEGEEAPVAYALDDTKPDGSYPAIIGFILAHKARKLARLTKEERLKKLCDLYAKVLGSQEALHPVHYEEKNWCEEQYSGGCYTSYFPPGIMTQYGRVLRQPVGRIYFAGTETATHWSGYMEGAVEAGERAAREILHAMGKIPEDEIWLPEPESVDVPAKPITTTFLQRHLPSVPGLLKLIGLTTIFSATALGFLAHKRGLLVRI
T3 sequence (P21398 whole entry): T1 sequence (P21398 whole entry)

[5] = Inhibitory activity against Swine kidney diamine oxidase (SKDAO); No inhibition, corresponding to value >10e-4
[6] = Inhibitory activity against Serum amine oxidase; No inhibition, corresponding to value >10e-4

SMILES | pKi [1] | pKi [2] | pKi [3] | Ki [4] | Ki [5] | Ki [6]
CC(=O)N1N=C(c2ccc(O)cc2O)CC1c1cccc(C)c1 (stereo unspecified) | 5.00 | 7.89 | 7.42 | 50 nM |  | 
CC(=O)N1N=C(c2ccc(O)cc2O)CC1c1ccccc1C (stereo unspecified) |  | 7.28 | 7.52 | 80 nM |  | 
CC(=O)N1N=C(c2ccccc2O)CC1c1ccccc1C (stereo unspecified) | 4.24 |  |  | 300000 nM |  | 
CC(=O)N1N=C(c2ccccc2)CC1c1ccc(Cl)cc1 (stereo unspecified) |  |  |  | 6000 nM | No inhibition | No inhibition
CC(=O)N1N=C(c2ccccc2)CC1c1cccc(C)c1 (stereo unspecified) |  |  |  | 200000 nM | No inhibition | No inhibition
CC(=O)N1N=C(c2ccccc2O)CC1c1cccc(C)c1 (stereo unspecified) |  |  |  | 5500 nM |  | 
